From PubChem BioAssay (NCI)
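GI50 marks 50% less growth. At the TGI there is no net growth.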

Tests used:
Assay in all cases: DTP human tumour cell line panel, 384-well format
786-0 renal = tested on: 786-0 renal
A498 renal = tested on: A498 renal
A549 NSCLC = tested on: A549 NSCLC
ACHN renal = tested on: ACHN renal
BT-549 breast = tested on: BT-549 breast
CAKI-1 renal = tested on: CAKI-1 renal
CCRF-CEM leukemia = tested on: CCRF-CEM leukemia
COLO 205 colon = tested on: COLO 205 colon
DU-145 prostate = tested on: DU-145 prostate
EKVX NSCLC = tested on: EKVX NSCLC
HCC-2998 colon = tested on: HCC-2998 colon
HCT-116 colon = tested on: HCT-116 colon
HCT-15 colon = tested on: HCT-15 colon
HL-60(TB) leukemia = tested on: HL-60(TB) leukemia
HOP-62 NSCLC = tested on: HOP-62 NSCLC
HOP-92 NSCLC = tested on: HOP-92 NSCLC
HS 578T breast = tested on: HS 578T breast
HT29 colon = tested on: HT29 colon
IGROV1 ovarian = tested on: IGROV1 ovarian
K-562 leukemia = tested on: K-562 leukemia
KM12 colon = tested on: KM12 colon
LOX IMVI melanoma = tested on: LOX IMVI melanoma
M14 melanoma = tested on: M14 melanoma
MALME-3M melanoma = tested on: MALME-3M melanoma
MCF7 breast = tested on: MCF7 breast
MDA-MB-231 breast = tested on: MDA-MB-231 breast
MDA-MB-435 melanoma = tested on: MDA-MB-435 melanoma
MDA-MB-468 breast = tested on: MDA-MB-468 breast
MOLT-4 leukemia = tested on: MOLT-4 leukemia
NCI-H226 lung = tested on: NCI-H226 lung
NCI-H23 lung = tested on: NCI-H23 lung
NCI-H322M lung = tested on: NCI-H322M lung
NCI-H460 NSCLC = tested on: NCI-H460 NSCLC
NCI-H522 lung = tested on: NCI-H522 lung
NCI/ADR-RES ovarian = tested on: NCI/ADR-RES ovarian
OVCAR-3 ovarian = tested on: OVCAR-3 ovarian
OVCAR-4 ovarian = tested on: OVCAR-4 ovarian
OVCAR-5 ovarian = tested on: OVCAR-5 ovarian
OVCAR-8 ovarian = tested on: OVCAR-8 ovarian
PC-3 prostate = tested on: PC-3 prostate
RPMI-8226 leukemia = tested on: RPMI-8226 leukemia
RXF 393 renal = tested on: RXF 393 renal
SF-268 CNS = tested on: SF-268 CNS
SF-295 CNS = tested on: SF-295 CNS
SF-539 CNS = tested on: SF-539 CNS
SK-MEL-28 melanoma = tested on: SK-MEL-28 melanoma
SK-MEL-5 melanoma = tested on: SK-MEL-5 melanoma
SK-OV-3 ovarian = tested on: SK-OV-3 ovarian
SN12C renal = tested on: SN12C renal
SNB-19 CNS = tested on: SNB-19 CNS
SNB-75 CNS = tested on: SNB-75 CNS
SW-620 colon = tested on: SW-620 colon
T-47D breast = tested on: T-47D breast
TK-10 renal = tested on: TK-10 renal
U251 glioblastoma = tested on: U251 glioblastoma
UACC-257 melanoma = tested on: UACC-257 melanoma
UACC-62 melanoma = tested on: UACC-62 melanoma
UO-31 renal = tested on: UO-31 renal

O=C(c1ccc(F)c(F)c1Nc1ccc(I)cc1F)N1CC(O)([C@H]2CCCCN2)C1
GI50 ([…]-0 renal): 1.24 µM | TGI (786-0 renal): 2.59 µM | GI50 (A498 renal): 1.22 µM | TGI (A498 renal): 2.5 µM | GI50 (A549 NSCLC): 0.807 µM | TGI (A549 NSCLC): 2.61 µM | GI50 (ACHN renal): 1.87 µM | TGI (ACHN renal): 15.4 µM | GI50 (BT-549 breast): 2.25 µM | TGI (BT-549 breast): 5.84 µM | GI50 (CAKI-1 renal): 0.994 µM | TGI (CAKI-1 renal): 14.4 µM | GI50 (CCRF-CEM leukemia): 1.93 µM | TGI (CCRF-CEM leukemia): 3.57 µM | GI50 (COLO 205 colon): 0.101 µM | TGI (COLO 205 colon): 0.589 µM | GI50 (DU-145 prostate): 3.81 µM | TGI (DU-145 prostate): 14.8 µM | GI50 (EKVX NSCLC): 2.75 µM | TGI (EKVX NSCLC): 12.6 µM | GI50 (HCC-2998 colon): 0.2 µM | TGI (HCC-2998 colon): 1.21 µM | GI50 (HCT-116 colon): 0.615 µM | TGI (HCT-116 colon): 2.06 µM | GI50 (HCT-15 colon): 3.33 µM | TGI (HCT-15 colon): 14.5 µM | GI50 (HL-60(TB) leukemia): 0.212 µM | TGI (HL-60(TB) leukemia): 1.26 µM | GI50 (HOP-62 NSCLC): 1.28 µM | TGI (HOP-62 NSCLC): 8.42 µM | GI50 (HOP-92 NSCLC): 0.888 µM | TGI (HOP-92 NSCLC): 2.17 µM | GI50 (HS 578T breast): 4.16 µM | TGI (HS 578T breast): 16.3 µM | GI50 (HT29 colon): 0.185 µM | TGI (HT29 colon): 1.35 µM | GI50 (IGROV1 ovarian): 0.5 µM | TGI (IGROV1 ovarian): 2.99 µM | GI50 (K-562 leukemia): 1.17 µM | TGI (K-562 leukemia): 2.42 µM | GI50 (KM12 colon): 0.66 µM | TGI (KM12 colon): 2.75 µM | GI50 (LOX IMVI melanoma): 0.389 µM | TGI (LOX IMVI melanoma): 1.66 µM | GI50 (M14 melanoma): 0.0512 µM | TGI (M14 melanoma): 0.22 µM | GI50 (MALME-3M melanoma): 0.0318 µM | TGI (MALME-3M melanoma): 0.118 µM | GI50 (MCF7 breast): 1.88 µM | TGI (MCF7 breast): 3.62 µM | GI50 (MDA-MB-231 breast): 0.477 µM | TGI (MDA-MB-231 breast): 3.63 µM | GI50 (MDA-MB-435 melanoma): 0.415 µM | TGI (MDA-MB-435 melanoma): 11.6 µM | GI50 (MDA-MB-468 breast): 2.73 µM | TGI (MDA-MB-468 breast): 5.07 µM | GI50 (MOLT-4 leukemia): 1.62 µM | TGI (MOLT-4 leukemia): 3 µM | GI50 (NCI-H226 lung): 1.64 µM | TGI (NCI-H226 lung): 10.2 µM | GI50 (NCI-H23 lung): 0.422 µM | TGI (NCI-H23 lung): 2.05 µM | GI50 (NCI-H322M lung): 1.51 µM | TGI (NCI-H322M lung): 13.7 µM | GI50 (NCI-H460 NSCLC): 0.995 µM | TGI (NCI-H460 NSCLC): 2.28 µM | GI50 (NCI-H522 lung): 4.33 µM | TGI (NCI-H522 lung): 16.9 µM | GI50 (NCI/ADR-RES ovarian): 9.21 µM | TGI (NCI/ADR-RES ovarian): 21.3 µM | GI50 (OVCAR-3 ovarian): 3.43 µM | TGI (OVCAR-3 ovarian): 13.7 µM | GI50 (OVCAR-4 ovarian): 10.4 µM | TGI (OVCAR-4 ovarian): 22.2 µM | GI50 (OVCAR-5 ovarian): 0.668 µM | TGI (OVCAR-5 ovarian): 11.9 µM | GI50 (OVCAR-8 ovarian): 6.52 µM | TGI (OVCAR-8 ovarian): 19.6 µM | GI50 (PC-3 prostate): 5.64 µM | TGI (PC-3 prostate): 16.8 µM | GI50 (RPMI-8226 leukemia): 1.78 µM | TGI (RPMI-8226 leukemia): 4.38 µM | GI50 (RXF 393 renal): 1.51 µM | TGI (RXF 393 renal): 3.18 µM | GI50 (SF-268 CNS): 1.7 µM | TGI (SF-268 CNS): 5.37 µM | GI50 (SF-295 CNS): 13.4 µM | TGI (SF-295 CNS): 26.3 µM | GI50 (SF-539 CNS): 1.62 µM | TGI (SF-539 CNS): 3.02 µM | GI50 (SK-MEL-28 melanoma): 0.187 µM | TGI (SK-MEL-28 melanoma): 0.528 µM | GI50 (SK-MEL-5 melanoma): 0.281 µM | TGI (SK-MEL-5 melanoma): 1.62 µM | GI50 (SK-OV-3 ovarian): 4.99 µM | TGI (SK-OV-3 ovarian): 17.8 µM | GI50 (SN12C renal): 1.52 µM | TGI (SN12C renal): 13.2 µM | GI50 (SNB-19 CNS): 4.05 µM | TGI (SNB-19 CNS): 17.3 µM | GI50 (SNB-75 CNS): 1.62 µM | TGI (SNB-75 CNS): 4.34 µM | GI50 (SW-620 colon): 0.371 µM | TGI (SW-620 colon): 10.4 µM | GI50 (T-47D breast): 2.65 µM | TGI (T-47D breast): 6.46 µM | GI50 (TK-10 renal): 3.12 µM | TGI (TK-10 renal): 11.8 µM | GI50 (U251 glioblastoma): 2.57 µM | TGI (U251 glioblastoma): 11.3 µM | GI50 (UACC-257 melanoma): 0.156 µM | TGI (UACC-257 melanoma): 0.428 µM | GI50 (UACC-62 melanoma): 0.104 µM | TGI (UACC-62 melanoma): 0.378 µM | GI50 (UO-31 renal): 1.61 µM | TGI (UO-31 renal): 5.39 µM
